Test results taken from patent publication EP1016409B1, “FREEZE DRIED COMPOSITION COMPRISING GLYCOSPHINGOLIPIDS” (KIRIN BEER KABUSHIKI KAISHA, priority 1997, dated 1998).

What was measured:
[1] = Additives for improving re-solubility during storage, sucrose as excipient; type: physicochemical; settings: lyophilized, KRN7000 200 µg/ml, Polysorbate 20 0.5%, Sucrose 9.6%
Experimental: (§1) First, Polysorbate 20 was dissolved in distilled water in a concentration of 0.5%, and sucrose and a variety of additives such concentrations as listed in Table 9. Next, 20 mg of the active component (KRN7000) was weighed and stirred in 100 ml of the solvents in a heated bath to 80°C for 20 minutes in order to form a solution. After cooling with running water, the mixture was filtered through a 0.22 µm filter, and transparent colorless glass vials having a volume of 5 ml were charged with a 1 ml portion of each of a variety of solutions thus obtained and subjected to lyophilization. Lyophilization was carried out under the condition of preliminary freezing at -40°C for 2 hours and drying at -20°C for 24 hours, 10°C for 12 hours, and finally at 25°C for 5 hours to give the lyophilized product. The degree of vacuum was set at 0.1 Torr or less during drying step.
After the lyophilization step, the lyophilized composition thus obtained was stored at 25°C or 50°C, or at both of these temperatures. After storage at 25°C for 1 month or at 50°C for 3 days, the lyophilized composition was reconstituted in 1 ml of distilled water for injection, left standing for 30 minutes, and solubility was judged when the foams generated on reconstitution disappeared. The samples judged in solution were further stored, and judged again of their solubility after storage at 25°C for 4 months or at 50°C for 2 weeks.
(§2) The solubility was judged by cleaning the outside of the vial and placing it beneath the white light source in a darkroom for observation with naked eye at the position of a luminous intensity of about 5,000 lux. When the sample was clear with no precipitates, it was judged that the active component was dissolved.

[2] = Excipient appropriate to lyophilization 1: re-solubility immediately after lyophilization; type: physicochemical; settings: KRN7000 200 µg/ml, Polysorbate 20 0.5%
Experimental: A variety of monosaccharides and disaccharides were used for examination of excipients of the lyophilized preparation. In this context, the active component (KRN7000) was set at the concentration of 200 µg/ml, and Polysorbate 20 which is used only in a limited amount from the viewpoint of safety was set at the concentration of 0.5% in the following examination.
as §1, with “the saccharides were dissolved in” for “sucrose and a variety of additives”, “6.” for “9.”
After the lyophilization step, the lyophilized composition was reconstituted in 1 ml of distilled water for injection, left standing for 30 minutes, and solubility was judged when the foams generated on reconstitution disappeared.
as §2

CCCCCCCCCCCCCCCCCCCCCCCCCC(=O)N[C@@H](CO[C@H]1O[C@H](CO)[C@H](O)[C@H](O)[C@H]1O)[C@H](O)[C@H](O)CCCCCCCCCCCCCC [KRN7000, (2S,3S,4R)-1-(α-D-galactopyranosyloxy)-2-hexacosanoylamino-3,4-octadecanediol]
Re-solubility after storage (by naked eye) ([1]; Arginine, 0.1%, 50°C, 3 days): + (+ not dissolved (or deposited))
Re-solubility after storage (by naked eye) ([1]; Glycerol, 1%, 25°C, 1 month): + (+ not dissolved (or deposited))
Re-solubility after storage (by naked eye) ([1]; Glycine, 0.1%, 50°C, 3 days): + (+ not dissolved (or deposited))
Re-solubility after storage (by naked eye) ([1]; Glycine, 1%, 50°C, 3 days): + (+ not dissolved (or deposited))
Re-solubility after storage (by naked eye) ([1]; Histidine, 2%, 50°C, 2 weeks): - (- dissolved)
Re-solubility after storage (by naked eye) ([1]; Histidine, 2%, 50°C, 3 days): - (- dissolved)
Re-solubility after storage (by naked eye) ([1]; Pluronic F68, 0.1%, 25°C, 1 month): - (- dissolved)
Re-solubility after storage (by naked eye) ([1]; Pluronic F68, 0.1%, 25°C, 4 month): + (+ not dissolved (or deposited))
Re-solubility after storage (by naked eye) ([1]; Pluronic F68, 1%, 25°C, 1 month): - (- dissolved)
Re-solubility after storage (by naked eye) ([1]; Pluronic F68, 1%, 25°C, 4 month): + (+ not dissolved (or deposited))
Re-solubility after storage (by naked eye) ([1]; Propylene glycol, 1%, 25°C, 1 month): + (+ not dissolved (or deposited))
Re-solubility after storage (by naked eye) ([1]; Sodium deoxycholate, 0.1%, 25°C, 1 month): - (- dissolved)
Re-solubility after storage (by naked eye) ([1]; Sodium deoxycholate, 0.1%, 25°C, 4 month): + (+ not dissolved (or deposited))
Re-solubility after storage (by naked eye) ([1]; Sodium deoxycholate, 1%, 25°C, 1 month): - (- dissolved)
Re-solubility after storage (by naked eye) ([1]; Sodium deoxycholate, 1%, 25°C, 4 month): - (- dissolved)
Re-solubility after storage (by naked eye) ([1]; Sodium deoxycholate, 1%, 50°C, 2 weeks): - (- dissolved)
Re-solubility after storage (by naked eye) ([1]; Sodium deoxycholate, 1%, 50°C, 3 days): - (- dissolved)
Re-solubility after storage (by naked eye) ([1]; no additive, 25°C, 1 month): - (- dissolved)
Re-solubility after storage (by naked eye) ([1]; no additive, 25°C, 4 month): + (+ not dissolved (or deposited))
Re-solubility after storage (by naked eye) ([1]; no additive, 50°C, 3 days): + (+ not dissolved (or deposited))
Re-solubility immediately after lyophilization ([2]; Fructose 5%): + (+ not dissolved (or deposited))
Re-solubility immediately after lyophilization ([2]; Fructose 10%): + (+ not dissolved (or deposited))
Re-solubility immediately after lyophilization ([2]; Glucose 5%): - (- dissolved)
Re-solubility immediately after lyophilization ([2]; Glucose 10%): + (+ not dissolved (or deposited))
Re-solubility immediately after lyophilization ([2]; Lactose 5%): + (+ not dissolved (or deposited))
Re-solubility immediately after lyophilization ([2]; Lactose 10%): + (+ not dissolved (or deposited))
Re-solubility immediately after lyophilization ([2]; Maltose 1.5%): + (+ not dissolved (or deposited))
Re-solubility immediately after lyophilization ([2]; Maltose 3%): + (+ not dissolved (or deposited))
Re-solubility immediately after lyophilization ([2]; Mannitol 5%): + (+ not dissolved (or deposited))
Re-solubility immediately after lyophilization ([2]; Mannitol 10%): - (- dissolved)
Re-solubility immediately after lyophilization ([2]; Sorbitol 5%): + (+ not dissolved (or deposited))
Re-solubility immediately after lyophilization ([2]; Sorbitol 10%): + (+ not dissolved (or deposited))
Re-solubility immediately after lyophilization ([2]; Sucrose 4.8%): - (- dissolved)
Re-solubility immediately after lyophilization ([2]; Sucrose 9.6%): - (- dissolved)
Re-solubility immediately after lyophilization ([2]; Xylitol 4.3%): + (+ not dissolved (or deposited))
Re-solubility immediately after lyophilization ([2]; Xylitol 8.6%): + (+ not dissolved (or deposited))
